{
  "source": "ChEMBL document CHEMBL1148037",
  "about": "“Effect of Fungal Natural Products in an Agrobacterium tumefaciens Potato Disc Assay” (1994)",
  "key": {"[1]": {"test_system": "Agrobacterium tumefaciens", "experiment": "Antitumor activity against Agrobacterium tumefaciens B6-induced crown-gall tumor formation in potato assessed as tumor induction at 25 ug/disk after 12 days at 27 degC by potato disk assay relative to control", "type": "functional"}, "[2]": {"test_system": "Agrobacterium tumefaciens", "experiment": "Antitumor activity against Agrobacterium tumefaciens B6-induced crown-gall tumor formation in potato assessed as tumor induction at 5 ug/disk after 12 days at 27 degC by potato disk assay relative to control", "type": "functional"}, "[3]": {"test_system": "Curvularia lunata", "experiment": "Antifungal activity against Curvularia lunata at 50 to 500 ug/disk by paper-disk-plate technique", "type": "functional, organism-based"}, "[4]": {"test_system": "Bacillus subtilis", "experiment": "Antibacterial activity against Bacillus subtilis at 50 to 500 ug/disk by paper-disk-plate technique", "type": "functional, organism-based"}, "[5]": {"test_system": "Bacillus cereus", "experiment": "Antibacterial activity against Bacillus cereus at 50 to 500 ug/disk by paper-disk-plate technique", "type": "functional, organism-based"}, "[6]": {"test_system": "Brochothrix thermosphacta", "experiment": "Antibacterial activity against Microbacterium thermosphactum at 50 to 500 ug/disk by paper-disk-plate technique", "type": "functional, organism-based"}, "[7]": {"test_system": "Enterobacter cloacae", "experiment": "Antibacterial activity against Enterobacter cloacae at 50 to 500 ug/disk by paper-disk-plate technique", "type": "functional, organism-based"}, "[8]": {"test_system": "Agrobacterium tumefaciens", "experiment": "Antitumor activity against Agrobacterium tumefaciens B6-induced crown-gall tumor formation in potato assessed as tumor induction at 50 ug/disk after 12 days at 27 degC by potato disk assay relative to control", "type": "functional"}, "[9]": {"test_system": "Escherichia coli", "experiment": "Antibacterial activity against Escherichia coli at 50 to 500 ug/disk by paper-disk-plate technique", "type": "functional, organism-based"}, "[10]": {"test_system": "Chaetomium", "experiment": "Antifungal activity against Chaetomium at 50 to 500 ug/disk by paper-disk-plate technique", "type": "functional, organism-based"}, "[11]": {"test_system": "Agrobacterium tumefaciens", "experiment": "Antitumor activity against Agrobacterium tumefaciens B6-induced crown-gall tumor formation in potato assessed as tumor induction at 10 ug/disk after 12 days at 27 degC by potato disk assay relative to control", "type": "functional"}, "[12]": {"test_system": "Citrobacter freundii", "experiment": "Antibacterial activity against Citrobacter freundii at 50 to 500 ug/disk by paper-disk-plate technique", "type": "functional, organism-based"}, "[13]": {"test_system": "Agrobacterium tumefaciens", "experiment": "Antibacterial activity against Agrobacterium tumefaciens at 50 to 500 ug/disk by paper-disk-plate technique", "type": "functional, organism-based"}, "[14]": {"test_system": "Aspergillus flavus", "experiment": "Antifungal activity against Aspergillus flavus at 50 to 500 ug/disk by paper-disk-plate technique", "type": "functional, organism-based"}},
  "note": "Activity calls are given as the source filed them. The calls are words filed in the database; no cut-off is given here.",
  "data": [
    {"compound": "CCCCCc1cccc(=O)o1", "values": [
      {"measurement": "Activity", "setting": "[1]", "result": -35.5, "unit": "%"}
    ]},
    {"compound": "CO[C@]12c3c(C)cc(O)c4c(=O)occ(c34)C(=O)[C@H]1[C@]13COC(=O)c4c(O)cc(C)c(c41)C(=O)[C@H]2[C@@H]3OC(C)=O", "values": [
      {"measurement": "Activity", "setting": "[2]", "result": -67, "unit": "%"},
      {"measurement": "Activity", "setting": "[3]", "result": "inactive"},
      {"measurement": "Activity", "setting": "[4]", "result": "inactive"},
      {"measurement": "Activity", "setting": "[5]", "result": "inactive"},
      {"measurement": "Activity", "setting": "[6]", "result": "inactive"},
      {"measurement": "Activity", "setting": "[7]", "result": "inactive"},
      {"measurement": "Activity", "setting": "[8]", "result": -94, "unit": "%"},
      {"measurement": "Activity", "setting": "[9]", "result": "inactive"},
      {"measurement": "Activity", "setting": "[1]", "result": -95, "unit": "%"},
      {"measurement": "Activity", "setting": "[10]", "result": "inactive"},
      {"measurement": "Activity", "setting": "[11]", "result": -74, "unit": "%"},
      {"measurement": "Activity", "setting": "[12]", "result": "inactive"},
      {"measurement": "Activity", "setting": "[13]", "result": "inactive"},
      {"measurement": "Activity", "setting": "[14]", "result": "inactive"}
    ]},
    {"compound": "CC(=C\\C(=O)O)/C=C(\\C)C[C@H](C)CCCC[C@H]1OC(=O)[C@@H]1CO", "note": "[ANTIBIOTIC 1233A]", "values": [
      {"measurement": "Activity", "setting": "[1]", "result": -39, "unit": "%"}
    ]},
    {"compound": "C[C@H]1CCC/C=C/[C@@H]2C[C@H](O)C[C@H]2[C@H](O)/C=C/C(=O)O1", "note": "[BREFELDIN A]", "values": [
      {"measurement": "Activity", "setting": "[1]", "result": -62, "unit": "%"}
    ]},
    {"compound": "CC[C@@]1(O)C(=O)OCc2c1cc1n(c2=O)Cc2cc3ccccc3nc2-1", "note": "[CAMPTOTHECIN]", "values": [
      {"measurement": "Activity", "setting": "[1]", "result": -100, "unit": "%"}
    ]},
    {"compound": "CC[C@H]1C2[C@H]([C@@H](C)c3c[nH]c4ccccc34)NC(=O)[C@@]23C(=O)/C=C\\C(=O)[C@H](O)/C(C)=C\\[C@@H](C)C/C=C/[C@H]3[C@@H]2O[C@]12C", "note": "(some centres undefined) [CHAETOGLOBOSIN K]", "values": [
      {"measurement": "Activity", "setting": "[2]", "result": -74, "unit": "%"},
      {"measurement": "Activity", "setting": "[3]", "result": "inactive"},
      {"measurement": "Activity", "setting": "[4]", "result": "inactive"},
      {"measurement": "Activity", "setting": "[5]", "result": "inactive"},
      {"measurement": "Activity", "setting": "[6]", "result": "inactive"},
      {"measurement": "Activity", "setting": "[7]", "result": "inactive"},
      {"measurement": "Activity", "setting": "[8]", "result": -100, "unit": "%"},
      {"measurement": "Activity", "setting": "[9]", "result": "inactive"},
      {"measurement": "Activity", "setting": "[1]", "result": -94, "unit": "%"},
      {"measurement": "Activity", "setting": "[10]", "result": "inactive"},
      {"measurement": "Activity", "setting": "[11]", "result": -97, "unit": "%"},
      {"measurement": "Activity", "setting": "[12]", "result": "inactive"},
      {"measurement": "Activity", "setting": "[13]", "result": "inactive"},
      {"measurement": "Activity", "setting": "[14]", "result": "inactive"}
    ]},
    {"compound": "CC1=C2C(=CO[C@H](C)[C@H]2C)C(O)=C(C(=O)O)C1=O", "note": "[CITRININ]", "values": [
      {"measurement": "Activity", "setting": "[1]", "result": -26, "unit": "%"}
    ]},
    {"compound": "C[C@H]1CCC[C@H](C[C@H]2Cc3cc(O)cc(O)c3C(=O)O2)O1", "note": "[CLADOSPORIN]", "values": [
      {"measurement": "Activity", "setting": "[2]", "result": -14, "unit": "%"},
      {"measurement": "Activity", "setting": "[8]", "result": -90, "unit": "%"},
      {"measurement": "Activity", "setting": "[1]", "result": -79, "unit": "%"},
      {"measurement": "Activity", "setting": "[11]", "result": -16, "unit": "%"}
    ]},
    {"compound": "CC[C@@H]1CCc2occ(CO)c(=O)c2[C@H]1O", "note": "[DIPLODIOL]", "values": [
      {"measurement": "Activity", "setting": "[2]", "result": -70, "unit": "%"},
      {"measurement": "Activity", "setting": "[3]", "result": "inactive"},
      {"measurement": "Activity", "setting": "[4]", "result": "inactive"},
      {"measurement": "Activity", "setting": "[5]", "result": "inactive"},
      {"measurement": "Activity", "setting": "[6]", "result": "inactive"},
      {"measurement": "Activity", "setting": "[7]", "result": "inactive"},
      {"measurement": "Activity", "setting": "[8]", "result": -75, "unit": "%"},
      {"measurement": "Activity", "setting": "[9]", "result": "inactive"},
      {"measurement": "Activity", "setting": "[1]", "result": -96.3, "unit": "%"},
      {"measurement": "Activity", "setting": "[10]", "result": "inactive"},
      {"measurement": "Activity", "setting": "[11]", "result": -73, "unit": "%"},
      {"measurement": "Activity", "setting": "[12]", "result": "inactive"},
      {"measurement": "Activity", "setting": "[13]", "result": "inactive"},
      {"measurement": "Activity", "setting": "[14]", "result": "inactive"}
    ]},
    {"compound": "CCCCCC[C@@H]1O[C@]23O[C@H]1CC[C@H]2[C@@H](O)CC[C@H]3O", "note": "[KONINGININ A]", "values": [
      {"measurement": "Activity", "setting": "[1]", "result": 75, "unit": "%"}
    ]},
    {"compound": "CCCCCC[C@@H](O)[C@H]1CCC2=C(O1)[C@@H](O)CCC2=O", "note": "[KONINGININ B]", "values": [
      {"measurement": "Activity", "setting": "[1]", "result": 1, "unit": "%"}
    ]},
    {"compound": "C[C@@H]1C/C=C/CCCCC(=O)Cc2cc(O)cc(O)c2C(=O)O1", "note": "[MONOCILLIN IV]", "values": [
      {"measurement": "Activity", "setting": "[2]", "result": -8, "unit": "%"},
      {"measurement": "Activity", "setting": "[3]", "result": "inactive"},
      {"measurement": "Activity", "setting": "[4]", "result": "inactive"},
      {"measurement": "Activity", "setting": "[5]", "result": "inactive"},
      {"measurement": "Activity", "setting": "[6]", "result": "inactive"},
      {"measurement": "Activity", "setting": "[7]", "result": "inactive"},
      {"measurement": "Activity", "setting": "[8]", "result": -75, "unit": "%"},
      {"measurement": "Activity", "setting": "[9]", "result": "inactive"},
      {"measurement": "Activity", "setting": "[1]", "result": -78, "unit": "%"},
      {"measurement": "Activity", "setting": "[10]", "result": "inactive"},
      {"measurement": "Activity", "setting": "[11]", "result": -63, "unit": "%"},
      {"measurement": "Activity", "setting": "[12]", "result": "inactive"},
      {"measurement": "Activity", "setting": "[13]", "result": "inactive"},
      {"measurement": "Activity", "setting": "[14]", "result": "inactive"}
    ]},
    {"compound": "O=C1C=C2C(=CCOC2O)O1", "note": "(centres undefined) [PATULIN]", "values": [
      {"measurement": "Activity", "setting": "[1]", "result": -66, "unit": "%"}
    ]},
    {"compound": "CC(C)=C1Oc2c(ccc3c2COC(C)(O)C3)C1=O", "note": "(centres undefined) [PERGILLIN]", "values": [
      {"measurement": "Activity", "setting": "[1]", "result": -68.9, "unit": "%"}
    ]},
    {"compound": "C[C@@H]1C[C@H]2O[C@@H]2/C=C\\C=C\\C(=O)Cc2c(Cl)c(O)cc(O)c2C(=O)O1", "note": "[RADICICOL]", "values": [
      {"measurement": "Activity", "setting": "[2]", "result": -76, "unit": "%"},
      {"measurement": "Activity", "setting": "[8]", "result": -100, "unit": "%"},
      {"measurement": "Activity", "setting": "[1]", "result": -75, "unit": "%"},
      {"measurement": "Activity", "setting": "[11]", "result": -94, "unit": "%"}
    ]},
    {"compound": "O=C(O)/C=C/CCCCCCCCC(=O)O", "note": "[TRAUMATIC ACID]", "values": [
      {"measurement": "Activity", "setting": "[1]", "result": 28.4, "unit": "%"}
    ]}
  ]
}
